In publication PMC2784635 (Bioorganic & medicinal chemistry, 2008):

What was measured:
plant pathogens = assay: fungicidal activity on plants; assay type: in vivo
[1] = biological target: cytochrome bc1 complex (beef heart mitochondria, NADH oxidase) (Bos taurus, UniProt P00157+P13272); assay: beef heart mitochondrial NADH oxidase assay; assay type: biochemical; conditions: for IC50, NADH oxidase: beef heart mitochondria, Z-enamide analogues, Table 5
[2] = tested on: electron transport chain at complex III; conditions: beef heart mitochondrial respiration assay; cited from earlier work
[3] = simulated sunlight photostability test, thin films on glass slides; assay type: physicochemical; conditions: for time for 50% of parent compound being lost / T50 glass slides: thin films on glass slides
several fungi = conditions: cited from earlier work
[4] = tested on: Plasmopara viticola (vine downy mildew); assay: glasshouse foliar spray test, vine downy mildew; assay type: in vivo

C/C=C(C)/C=C/C=C/[C@H](OC)[C@@H](C)[C@@H](OC)[C@@H](C)CCc1oc2c(O)c(OC)cc(OC)c2c(=O)c1C [Compound 2, stigmatellin, reference compound]
fungicidal activity on plants (plant pathogens): very little fungicidal activity
activity in the NADH oxidase / beef heart mitochondrial respiration assay [1]: quite active

COC(=O)CNC(=O)/C=C\C/C=C\NC(=O)/C=C(C)/C=C/[C@H](C)[C@H](OC)[C@H](C)[C@H](/C=C/c1ccccc1)OC [Compound 8, crocacin A]
inhibition of the electron transport chain at complex III [2]: inhibited the electron transport chain at complex III
time for 50% of parent compound being lost [3]: 7 min
inhibition of growth of fungi in vitro (several fungi): inhibited the growth of several fungi in vitro

CO[C@H]([C@H](C)[C@H](/C=C/c1ccccc1)OC)[C@@H](C)/C=C/C(C)=C/C(=O)N/C=C\C/C=C\C(=O)NCC(=O)O [Compound 9, crocacin B]
inhibition of the electron transport chain at complex III [2]: not to be active

CO[C@H]([C@H](C)[C@H](/C=C/c1ccccc1)OC)[C@@H](C)/C=C/C(C)=C/C(N)=O [Compound 10, crocacin C]
inhibition of the electron transport chain at complex III [2]: not to be active

COC(=O)CNC(=O)CCC/C=C\NC(=O)/C=C(C)/C=C/[C@H](C)[C@H](OC)[C@H](C)[C@H](/C=C/c1ccccc1)OC [Compound 11, crocacin D, reference compound]
inhibition of the electron transport chain at complex III [2]: inhibited the electron transport chain at complex III
T50 glass slides [3]: 0.6 h
time for 50% of parent compound being lost [3]: 37 min
activity in the NADH oxidase / beef heart mitochondrial respiration assay [1]: slightly more active than crocacin A
inhibition of growth of fungi in vitro (several fungi): inhibited the growth of several fungi in vitro

CCCCCCCCCCCCC(=O)N/C=C\CCCC(=O)NCC(=O)OC [Compound 12]
fungicidal activity on plants (plant pathogens): no fungicidal activity
photostability [3]: photostability was unexpectedly reduced
T50 glass slides [3]: 0.1 h
activity in the NADH oxidase / beef heart mitochondrial respiration assay [1]: very active

CCCCCCOc1ccc(C(=O)N/C=C\CCCC(=O)NCC(=O)OC)cc1 [Compound 13]
fungicidal activity on plants (plant pathogens): inactive as fungicides
T50 glass slides [3]: 5 h
activity in the NADH oxidase / beef heart mitochondrial respiration assay [1]: very good activity

COC(=O)CNC(=O)CCC/C=C\NC(=O)c1ccc(Cc2ccc(Br)cc2)cc1 [Compound 14]
photostability [3]: greater photostability than the natural product
T50 glass slides [3]: 12 h

CCOc1ccc(Cc2ccc(C(=O)N/C=C\CCCC(=O)NCC(=O)OC)cc2)cc1 [Compound 15]
photostability [3]: greater photostability than the natural product
T50 glass slides [3]: 20 h

CCc1ccc(Cc2ccc(Cn3c(=O)oc4ccc(OCC(=O)OC)cc43)cc2)cc1 [Compound 18]
activity on vine downy mildew on plants [4]: no activity

COC(=O)COc1ccc2oc(=O)n(Cc3ccc(Cc4ccc(I)cc4)cc3)c2c1 [Compound 19]
activity on vine downy mildew on plants [4]: no activity

CCc1ccc(Cc2ccc(Cn3c(=O)oc4ccc(NCC(=O)OC)cc43)cc2)cc1 [Compound 21]
IC50, NADH oxidase [1]: Inactive

CCc1ccc(Oc2ccc(C(=O)N[C@H]3C[C@H]3CCC(=O)NCC(=O)OC)cc2)cc1 [Compound 24]
activity in the NADH oxidase / beef heart mitochondrial respiration assay [1]: only very weakly active

COC(=O)CNC(=O)CCCc1ccccc1NC(=O)CCCCCCCCCc1ccccc1 [Compound 25]
activity in the NADH oxidase / beef heart mitochondrial respiration assay [1]: completely inactive
IC50, NADH oxidase [1]: Inactive
